Experimental data taken from US5258406A, “Sulfonimidamides” (priority 1992, dated 1993).
Read-outs that look alike come from different tables or passages of the source.

Test system: X5563 Plasma Cell Myeloma
Assay type: in vivo
Settings: IP, DX 10
Protocol: The compounds were tested in C3H mice bearing a 6C3HED lymphosarcoma, also known as the Gardner lymphosarcoma (GLS), and in a variety of human tumor xenografts in CD1 nu/nu mice, including CX-1, LX-1, HXGC3, and VRC5. The 6C3HED lymphosarcoma was obtained from the Division of Cancer Treatment, National […] Institute, Tumor Bank, maintained at E. G. and G. Mason Research (Worcester, Mass.). The CX-1 human colon carcinoma and the LX-1 human lung carcinoma xenografts were obtained from the National Cancer Institute. The HXGC3 and VRC5 human colon xenografts were obtained from Dr. P. J. Houghton, St. Jude Children's Hospital in Memphis (see Br. J. Cancer, 37, 213 (1978)). First passage tumor was stored in liquid nitrogen using standard techniques. The transplanted tumor was reestablished from the Tumor Bank every six months or as needed. The tumor was maintained by serial passage twice weekly in C3H mice.
In the procedure the tumor was removed from passage animals and minced into 1- to 3-mm square fragments using sterile techniques. Tumor pieces were checked for sterility using both Antibiotic Medium 1 and Brain Heart Infusion (Difco, Detroit, Mich.). Recipient mice were shaved and tumor pieces were implanted subcutaneously in the auxiliary region by trocar. Drug therapy on the appropriate schedule was initiated on the day after tumor implant for 6C3HED and after a seven (7) day delay for xenografts (or other delay as noted in Table 2). The compound being tested was mixed with 2.5% Emulphor EL620 from GAF Corporation (1:40 dilution in saline). Food and water were provided ad libitium. The drug was administered orally in 0.5 ml of 2.5% Emulphor (unless otherwise indicated). The tumor was measured the day after treatment ended with two dimensional measurements (width and length) of the tumor taken using automated digital calipers interfaced to a microcomputer. Approximate weight for the tumor was calculated using the following formula [Worzalla, J. F., et al., Invest. New Drugs, 8, 241 (1990], (tumor weight in mg)=(width in mm)^2 ×(length in mm)/2.
At least one control group of an equal number of mice was treated with the same volume of 2.5% Emulphor only. The percent inhibition was determined by subtracting the ratio of the mean tumor size of the test group relative to the control group from one and multiplying the result times 100.
The results of several experiments in mice bearing a 6C3HED lymphosarcoma (or other tumor where indicated) when the indicated compounds were administered are provided in Table 2. In Table 2, column 1 gives the Example number of the compound used, column 2 lists the dose level in mg/kg, column 3 provides the percent inhibition of tumor growth, column 4 gives the number of mice which died relative to the total number of animals in the group, column 5 gives the method of administration of the compound, and column 6 gives the dosage schedule. The protocol used with other tumors was the same as with the 6C3HED lymphosarcoma.
(p) Tumor type X5563 Plasma Cell Myeloma

Question: For `Cc1ccc(S(=N)(=O)NC(=O)Nc2ccc(Cl)cc2)cc1C` (centres unmarked) [Example 36, N-[[(4-chlorophenyl)amino]carbonyl]-3,4-dimethylbenzenesulfonimidamide], which “% inhibition of tumor growth” value (3.75 mg/kg) is on record?
Answer: 35%

Question: And the “Tox/Tot (mice which died / total)” value (3.75 mg/kg)?
Answer: 0/10

Question: What about the “% inhibition of tumor growth” value (7.5 mg/kg) of the same compound?
Answer: 63%

Question: What about the “Tox/Tot (mice which died / total)” value (7.5 mg/kg) of the same compound?
Answer: 1/10

Question: What about the “% inhibition of tumor growth” value (15 mg/kg) of the same compound?
Answer: 88%

Question: What about the “Tox/Tot (mice which died / total)” value (15 mg/kg) of the same compound?
Answer: 4/10

Question: And the “% inhibition of tumor growth” value (30 mg/kg)?
Answer: 97%

Question: What about the “Tox/Tot (mice which died / total)” value (30 mg/kg) of the same compound?
Answer: 3/10
